Results reported in ChEMBL document CHEMBL6121052, “Design of ROS-Triggered Sesquiterpene Lactone SC Prodrugs as TrxR1 Covalent Inhibitors for the Treatment of Non-Small Cell Lung Cancer” (J Med Chem, 2025).
The source made the active and inactive calls. No cut-off for these calls is given here.

Legend:
A549 [1] = test: Induction of morphological changes in human A549 cells assessed as decrease in cell density upto 10 uM by AO/EB staining based analysis; format: functional
NCI-H1299 [2] = test: Induction of ferroptosis in human NCI-H1299 cells assessed as increase in intracellular LPO accumulation at 5 uM incubated for 24 hrs by flow cytometry analysis; format: functional, cell-based
NCI-H1299 [3] = test: Induction of apoptosis in human NCI-H1299 cells assessed as increase in green fluorescence intensity upto 10 uM by AO/EB staining based fluorescence microscopic analysis; format: functional, cell-based
NCI-H1299 [4] = test: Induction of morphological changes in human NCI-H1299 cells assessed as increase in number of contracted shapes upto 10 uM; format: functional, cell-based
A549 [5] = test: Induction of morphological changes in human A549 cells assessed as increase in number of contracted shapes upto 10 uM; format: functional, cell-based
[6] = AUC (0 to infinity) in male Sprague-Dawley rat at 10 mg/kg, iv measured upto 24 hrs by LC-MS/MS analysis; format: ADME, organism-based; settings: in vivo
A549 [7] = test: Induction of ROS accumulation in human TrxR1 knockdown A549 cells incubated for 24 hrs; format: functional, cell-based
NSCLC = test: Downregulation of TrxR1 expression in human NSCLC cells; format: functional, cell-based
NCI-H1299 [8] = test: Induction of apoptosis in human NCI-H1299 cells assessed as late apoptotic cells at 2.5 uM measured after 48 hrs by Annexin V/FITC staining based flow cytometric analysis (reference value: 1.96%); format: functional
[9] = Toxicity in BALB/c mouse assessed as spleen damage at 5 to 10 mg/kg, po administered every 2 days for 2 weeks by H and E staining based analysis; format: organism-based; settings: in vivo, 336 h, dose 5-10 mg/kg
NCI-H1299 [10] = test: Induction of apoptosis in human NCI-H1299 cells assessed as necrotic cells at 10 uM measured after 48 hrs by Annexin V/FITC staining based flow cytometric analysis (reference value: 0.62%); format: functional
[11] = Toxicity in BALB/c mouse assessed as body weight loss at 5 to 10 mg/kg, po administered every 2 days for 2 weeks; format: organism-based; settings: in vivo, 336 h, dose 5-10 mg/kg
NCI-H1299 [12] = test: Induction of intracellular ROS generation in human NCI-H1299 cells upto 10 uM by DCFH-DA probe based fluorescence assay; format: functional, cell-based
[13] = Cmax in male Sprague-Dawley rat at 10 mg/kg, iv measured upto 24 hrs by LC-MS/MS analysis; format: ADME, organism-based; settings: in vivo
A549 [14] = test: Induction of ferroptosis in human A549 cells assessed as increase in intracellular LPO accumulation at 5 uM incubated for 24 hrs by flow cytometry analysis; format: functional, cell-based
NCI-H1299 [15] = test: Induction of apoptosis in human NCI-H1299 cells assessed as viable cells at 5 uM measured after 48 hrs by Annexin V/FITC staining based flow cytometric analysis (reference value: 96.3%); format: functional; settings: read-out: Activity
[16] = molecular target: T1, Thioredoxin reductase 1, cytoplasmic (Homo sapiens) (UniProt Q16881); test: Inhibition of TrxR1 in human A549 cells; format: cell-based; settings: dose <= 10.0 µM
T1 sequence (whole entry): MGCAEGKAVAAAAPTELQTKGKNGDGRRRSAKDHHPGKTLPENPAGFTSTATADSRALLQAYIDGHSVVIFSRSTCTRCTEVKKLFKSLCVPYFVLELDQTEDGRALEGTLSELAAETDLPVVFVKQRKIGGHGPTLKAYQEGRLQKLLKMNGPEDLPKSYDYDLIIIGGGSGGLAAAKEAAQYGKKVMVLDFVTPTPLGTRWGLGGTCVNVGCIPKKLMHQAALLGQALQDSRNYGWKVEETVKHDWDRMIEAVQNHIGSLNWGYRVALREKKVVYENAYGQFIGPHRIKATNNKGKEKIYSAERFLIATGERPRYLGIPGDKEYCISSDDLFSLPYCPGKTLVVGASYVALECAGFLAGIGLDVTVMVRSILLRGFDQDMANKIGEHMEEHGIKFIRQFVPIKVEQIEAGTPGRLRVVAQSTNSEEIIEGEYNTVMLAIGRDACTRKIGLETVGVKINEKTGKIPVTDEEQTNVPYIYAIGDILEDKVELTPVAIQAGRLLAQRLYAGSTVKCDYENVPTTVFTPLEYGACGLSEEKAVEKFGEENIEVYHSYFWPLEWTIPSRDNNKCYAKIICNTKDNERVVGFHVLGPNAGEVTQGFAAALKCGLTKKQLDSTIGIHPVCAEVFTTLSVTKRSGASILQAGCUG

NCI-H1299 [17] = test: Induction of ferroptosis in human NCI-H1299 cells assessed as effect on GPX4 protein expression at 10 uM incubated for 24 hrs by Western blotting analysis; format: functional, cell-based
A549 [18] = test: Induction of apoptosis in human A549 cells assessed as viable cells at 5 uM measured after 48 hrs by Annexin V/FITC staining based flow cytometric analysis (reference value: 90.8 %); format: functional; settings: read-out: Activity
NCI-H1299 [19] = test: Antitumor activity against human NCI-H1299 cells xenografted in BALB/c mouse assessed as reduction in tumor weight at 5 to 10 mg/kg, po administered every 2 days for 2 weeks; format: functional, organism-based; settings: dose 5-10 mg/kg
[20] = Toxicity in BALB/c mouse assessed as lung damage at 5 to 10 mg/kg, po administered every 2 days for 2 weeks by H and E staining based analysis; format: organism-based; settings: in vivo, 336 h, dose 5-10 mg/kg
NCI-H1299 [21] = test: Induction of apoptosis in human NCI-H1299 cells assessed as chromatin condensation upto 10 uM by Hoechst 33258 staining based fluorescence microscopic analysis; format: functional, cell-based
A549 [22] = test: Induction of apoptosis in human A549 cells assessed as late apoptotic cells at 10 uM measured after 48 hrs by Annexin V/FITC staining based flow cytometric analysis (reference value: 5.37%); format: functional
NCI-H1299 [23] = test: Induction of apoptosis in human NCI-H1299 cells assessed as late apoptotic cells at 5 uM measured after 48 hrs by Annexin V/FITC staining based flow cytometric analysis (reference value: 1.96%); format: functional
NCI-H1299 [24] = test: Induction of ferroptosis in human NCI-H1299 cells assessed as cell death by MTT assay; format: functional, cell-based
A549 [25] = test: Induction of apoptosis in human A549 cells assessed as late apoptotic cells at 5 uM measured after 48 hrs by Annexin V/FITC staining based flow cytometric analysis (reference value: 5.37%); format: functional
A549 [26] = test: Induction of ferroptosis in human A549 cells assessed as effect on SLC7A11 protein expression at 10 uM incubated for 24 hrs by Western blotting analysis; format: functional, cell-based
Mitochondrial membrane = test: Induction of mitochondrial membrane potential loss in human A549 cells assessed as increase in green fluorescence upto 10 uM incubated for 24 hrs by JC-1 staining based confocal microscopy analysis; format: cell membranes
A549 [27] = test: Antiproliferative activity against human A549 cells assessed as increase in cell viability in presence of NAC; format: functional, cell-based
NCI-H1299 [28] = test: Induction of apoptosis in human NCI-H1299 cells assessed as necrotic cells at 2.5 uM measured after 48 hrs by Annexin V/FITC staining based flow cytometric analysis (reference value: 0.62%); format: functional
NCI-H1299 [29] = test: Induction of ROS accumulation in human TrxR1 knockdown NCI-H1299 cells incubated for 24 hrs; format: functional, cell-based
[30] = Clearance in male Sprague-Dawley rat at 10 mg/kg, iv measured upto 24 hrs by LC-MS/MS analysis; format: ADME, organism-based; settings: in vivo

Compound: CCCNC(=O)O[C@@H]1/C=C(\C)C[C@H]2C=C(C[C@@H]3OC(=O)[C@H](CSC(=S)N(C)C)[C@H]31)C(=O)O2
- Activity (A549 [1]): Active
- Activity (NCI-H1299 [2]): Active
- Activity (NCI-H1299 [3]): Active
- Activity (NCI-H1299 [4]): Active
- Activity (A549 [5]): Active
- AUC(0-inf) [6]: 1080 ng·h/mL
- Activity (A549 [7]): Active
- Activity (NSCLC): Active
- Activity (NCI-H1299 [8]): 7.41%
- Activity [9]: Non-toxic
- Activity (NCI-H1299 [10]): 1.01%
- Activity [11]: Non-toxic
- Activity (NCI-H1299 [12]): Active
- Cmax [13]: 2310 ng/mL
- Activity (A549 [14]): Active
- viability at 5 µM (NCI-H1299 [15]): 72.7%
- inhibition [16]: Dose-dependent-effect
- Activity (NCI-H1299 [17]): Active
- viability at 5 µM (A549 [18]): 77.8%
- Activity (NCI-H1299 [19]): Active
- Activity [20]: Non-toxic
- Activity (NCI-H1299 [21]): Active
- Activity (A549 [22]): 24.3%
- Activity (NCI-H1299 [23]): 15.6%
- Activity (NCI-H1299 [24]): Active
- Activity (A549 [25]): 16.1%
- Activity (A549 [26]): Active
- Activity (Mitochondrial membrane): Active
- Activity (A549 [27]): Active
- Activity (NCI-H1299 [28]): 1.2%
- Activity (NCI-H1299 [29]): Active
- clearance [30]: 162 mL/min/kg
